A short description of data set [1]: evaluation of lightness and saturation of image sample (L*a*b* chromaticity). The format is physicochemical. To be noted: toner using the compound, in words. The protocol:
Image samples were formed using the resulting toners. The lightness and saturation of the samples were evaluated. To compare image characteristics, an image output test was made using a modified apparatus of LBP-5300 (manufactured by CANON KABUSHIKI KAISHA) as an image forming apparatus. The modification was performed in such a manner that a developing blade in a process cartridge was replaced with a stainless blade having a thickness of […] and that a blade bias of −200 V against a developing bias that was applied to a developing roller serving as a toner support was applicable.
With respect to each of the resulting image samples, chromaticity (L*, a*, b*) in the L*a*b* color system was measured with a reflection densitometer (Model: SpectroLino, manufactured by GretagMacbeth).
In the L*a*b* space, color coordinates indicating the magenta color of the Japan Color 2001 are defined as X (L1, a1, b1). In the L*a*b* space, coordinates of an intersection point of a plane including the L* axis and the coordinates X and the a*b* curve of the image sample obtained by the chromaticity measurement are defined as Y (L2, a2, b2). The a*b* curve is obtained by forming a plurality of image samples having different toner adhesion amounts. The difference Δc (=c2−c1) between a c* value [=c2={(a2^2+b2^2)}^1/2] at the intersection point Y and a c* value [=c1={(a1^2+b1^2)}^1/2] at the coordinates X was calculated. The difference ΔL (=L2−L1) between an L* value (=L2) at the intersection point Y and an L* value (=L1) at the coordinates X was calculated.
The lightness and saturation were evaluated on the basis of the following evaluation criteria.
A: Δc is 0 or more, and ΔL is 0 or more; B: Δc is −5 or more, and ΔL is −5 or more, excluding the case of Class A described above; and C: Δc is less than −5, or ΔL is less than −5.
In the case where Δc was −5 or more and ΔL was −5 or more, the sample was evaluated to have satisfactory lightness and saturation.

The nature of data set [2]: evaluation of lightfastness of image sample (Atlas Weather-Ometer Ci4000). The format is physicochemical. The conditions noted are these: toner using the compound, in words; for lightfastness: satisfactory = ΔE less than 10 after 60 hours. As to the method:
The image samples were placed in Atlas Weather-Ometer Ci4000 (from Toyo Seiki Seisaku-sho, Ltd.) and exposed for 60 hours. In this case, measurement conditions were as follows: black panel temperature: 50° C., chamber temperature: 40° C., relative humidity: 70%, and irradiance: 0.39 W/m^2 (340 nm).
The chromaticity (L*, a*, b*) in the L*a*b* color system was measured with the reflection densitometer (Model: SpectroLino, manufactured by GretagMacbeth) before and after the exposure test. The color difference (ΔE) was calculated from the following expression on the basis of measurements of the color characteristics:
Color difference(ΔE)={(a*before test−a*after test)^2+(b*before test−b*after test)^2+(L*before test−L*after test)^2}^1/2
In the case where ΔE was less than 10 after 60 hours, the sample was evaluated to have satisfactory lightfastness.

On to `CCN(CC)c1ccc2c(c1)Oc1cc(N(CC)CC)ccc1C21OC(=O)c2ccccc21` [(1)], for which, in data set [1], the lightness result was “satisfactory”. The “balance between the saturation and lightfastness” value in data set [2] is “not provided”.

In the case of `Cc1ccc(Nc2ccc3c4c(cc(=O)n3C)-c3ccccc3C(=O)c24)cc1` [(2)], in data set [1], the lightness and saturation result is on record as “not sufficient”. The lightfastness entry in data set [2] is “satisfactory”.

As for `Cc1ccc(/N=N/c2c(O)c(C(=O)O)cc3ccccc23)c(S(=O)(=O)O)c1` [(3)], the lightness and saturation result in data set [1] is “not sufficient”. Moreover, the lightfastness entry in data set [2] is “satisfactory”.
